How the values were obtained:
[1] = system: BMP-2, aggrecan and type II collagen mRNA expression in rat IVD cells; assay: Mevalonate experiment; type: cell-based; conditions: mevalonate 200 μM
IVD cells = assay: IVD cell proliferation / range of cell tolerance; type: cell-based, Sprague-Dawley rats; conditions: rat IVD cells
Excerpt: (§1) Disc cell isolation: Nucleus pulposus and inner anulus fibrosus cells of lumbar intervertebral discs from Sprague-Dawley rats were harvested by the enzymatic digestion and grown in monolayer until reached confluence.
(§2) Monolayer and Three-dimensional cell culture: Cells were trypsinized and subcultured in 12-well plate or embedded and cultured in alginate beads supplemented with complete DMEM/F12 medium after primary culture.

[2] = system: BMP-2, aggrecan and collagen II mRNA expression in IVD cells; assay: Quantitative real-time PCR, monolayer culture; type: cell-based, Sprague-Dawley rats; conditions: 3 μM, maximal at day 3
Excerpt: as §1, §2
Quantitative real-time PCR: Total RNAs were extracted and cDNAs were synthesized using Invitrogen […]™ first-strand synthesis kit.

[3] = system: BMP-2, aggrecan and type II collagen mRNA expression in rat IVD cells; assay: Quantitative real-time PCR, 3-D culture in alginate beads; type: cell-based, Sprague-Dawley rats
Excerpt: Monolayer and Three-dimensional cell culture: Cells were trypsinized and subcultured in 12-well plate or embedded and cultured in alginate beads supplemented with complete DMEM/F12 medium after primary culture. […] Quantitative real-time PCR: […] IVD Cell Isolation. Lumbar IVDs from Sprague-Dawley rats (Harlan Sprague-Dawley, Indianapolis, Ind.) aged 6-8 weeks were harvested immediately after euthanasia. NP and inner AF, including the transition zone (the area between the AF and the NP) were carefully removed from the disc and placed in DMEM/F12 medium (Gibco, Grand Island, N.Y.). […] Louis, Mo.) and 0.004% deoxyribonuclease II (Sigma-Aldrich) for 90 min at 37° C. under gentle agitation. The tissues were washed 3 times with Dulbecco's phosphate buffered saline (D-PBS) followed by digestion under the same conditions, except that the pronase was replaced with 0.04% collagenase type II (Sigma-Aldrich) for 6 hrs. […] Culture medium was changed on day 6 after cell seeding, and twice per week thereafter. Cell Culture in Alginate Beads. When the primary cell culture became confluent, the cells were trypsinized and washed twice with D-PBS and re-suspended in sterile 0.15 M NaCl containing 1.2% low-viscosity alginate (Sigma-Aldrich) at a density of 1×10^6 cells/ml. […] After 15 min, the newly formed alginate beads (containing about 12,000 cells/bead) were washed 3 times with sterile 0.15 M NaCl solution followed by 2 washes with DMEM/F-12 medium. […] Three days later, the medium was changed and treated with different doses of simvastatin (LKT Laboratories, St. […] To remove cells from the alginate bead, wells were rinsed 3 times with 0.15 M NaCl with gentle pipetting into the well. The rinse solution was incubated for 1 min and was aspirated off. Dissolving buffer (55 mmol/L sodium citrate and 0.15 M NaCl, pH 6.0) 3 times the volume of alginate was added to the wells, and plates were incubated at 37° C. for 15 min with gentle shaking. Cells were pelleted by centrifugation and the dissolved solution was collected for sGAG content measurement. The cell pellet was washed with D-PBS once and collected for DNA content determination or RNA extraction. All experiments were performed in triplicate. RNA Isolation and Reverse Transcription. Total RNA was extracted using the Trizol (Invitrogen, Carlsbad, Calif.) reagent followed by RNeasy Mini Kit (Qiagen, Inc., Valencia, Calif.) and DNase digestion with the RNase-free DNase set (Qiagen). Concentration of total RNA was determined at 260 nm with a spectrophotometer. Reverse transcription was carried out at 42° C. for 50 min in 20-μL volume with 100 ng of total RNA using the SuperScript First-Strand Synthesis System (Invitrogen, Carlsbad, Calif.). Quantitative Real-Time Polymerase Chain Reaction. Real-time polymerase chain reaction (PCR) was used to quantify gene expression levels of type II collagen, aggrecan, and BMP-2. GAPDH was used as an internal control and the TAQMAN® Real-Time PCR Kit (Applied Biosystems, Foster City, Calif.) was implemented. Reaction volume of 30 μl included 1 μL of cDNA, 1.5 ul of 20× of each primer/probe, and 12.5 μL of TAQMAN® PCR Master Mix (2×) (Applied Biosystems). Real-time PCR was performed using the following 3-step protocol: Step 1, 50° C. for 2 min; Step 2, 95° C. for 10 min; and Step 3, (95° C. for 15 sec, 60° C. for 1 min) times 45 cycles using the Gene Amp 7700 Sequence Detection System (Applied Biosystems). A positive standard curve for each primer was obtained by real-time PCR with serially-diluted cDNA sample mixture. The reaction efficacy of each gene was determined using the standard curves. The quantity of gene expression of aggrecan, type II collagen, and BMP-2 were calculated with standard samples and normalized with GAPDH internal control.

rat IVD cells = assay: MTT assay, cell viability; type: cell-based
Description: MTT assay. Cell proliferation was determined by a modified MTT assay (Sigma-Aldrich) (47, 48). Briefly, at each time point, the medium was aspirated and washed with PBS once. MTT solution (0.5 mg/ml) in PBS was added and incubated at 37° C. for 1.5 hr. The cells were removed from the alginate bead and pelleted by centrifugation. The cell pellet was then washed with D-PBS once and 10% Triton X-100, 0.1 N HCl in 2-propanol solution was added to each well to dissolve the formazan at 4° C. for 3 hrs. The dissolved solution was centrifuged and the absorbance was determined immediately using a spectrophotometer at 540 nm wavelength filter. All experiments were performed in triplicate.

[4] = system: aggrecan and type II collagen mRNA expression in rat IVD cells; assay: BMP inhibition experiment (noggin); type: cell-based
Description: BMP Inhibition Experiment. […] On day 7 and/or day 14, the cells were removed from the alginate beads and the gene expression of type II collagen and aggrecan was determined.

BMP-2 = biological target: T1, BMP-2 (Homo sapiens, UniProt P12643); conditions: noggin 3 μg/ml; cited from earlier work
T1 sequence (P12643 283-396): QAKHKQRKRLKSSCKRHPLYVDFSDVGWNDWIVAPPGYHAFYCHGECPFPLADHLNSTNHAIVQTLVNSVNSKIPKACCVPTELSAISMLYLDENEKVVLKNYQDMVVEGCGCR

[5] = noggin 3 μg/ml, simvastatin 3 μM, day 14

For `CC(O)(CCO)CC(=O)O` (stereo not drawn) [Mevalonate, mevalonate], the “aggrecan, type II collagen and BMP-2 gene expression, mevalonate alone” value ([1]; alginate beads) was “had no effect” and the “effect on gene expression (BMP-2, aggrecan, type II collagen) upregulated by simvastatin” value ([1]; simvastatin 3 μM, days 7 and 14) was “completely reversed”.
In the case of `CCC(C)(C)C(=O)O[C@H]1C[C@@H](C)C=C2C=C[C@H](C)[C@H](CC[C@@H]3C[C@@H](O)CC(=O)O3)[C@H]21` [simvastatin], the “dose over which IVD cell proliferation was inhibited” value (IVD cells) is reported as “over 3 μM”, the “increase of BMP-2 mRNA expression” value [2] is reported as 2 fold and the “increase of collagen type II mRNA expression” value ([3]; 3-D culture (alginate beads), 3 μM, day 21) is reported as 16 fold. The “increase of aggrecan mRNA expression” value ([3]; 3-D culture, 3 μM, day 21) was 11 fold, the “increase of BMP-2 mRNA expression” value ([3]; 3-D culture, 3 μM, peak level at day 7) was 5 fold and the “day of maximal type II collagen mRNA expression” value ([3]; alginate beads) was 21 days. The “day of maximum BMP-2 mRNA expression” value ([3]; alginate beads, 3 μM) was 2 days, the “day of maximum aggrecan mRNA expression” value ([3]; alginate beads, 3 μM) was 21 days and the IVD cell viability (rat IVD cells; 0.3 μM, time points tested) was “had no effect”. The IVD cell viability (rat IVD cells; 1 μM, from day 3 and thereafter) was “significant decrease” and the IVD cell viability (rat IVD cells; 3 μM, all time points tested) was “decreased”.
In the case of Noggin, the “aggrecan and type II collagen mRNA expression, noggin alone” value ([4]; noggin 500 ng/ml, no simvastatin) is reported as “had no interference”, the “block of aggrecan and type II collagen gene expression upregulated by simvastatin” value ([4]; noggin 500 ng/ml, simvastatin 3 μM, day 7) is reported as “significantly blocked” and the “block of aggrecan and type II collagen gene expression upregulated by simvastatin” value ([4]; noggin 500 ng/ml, simvastatin 3 μM, day 14) is reported as “did not endure”. For the same molecule, the “aggrecan and type II collagen gene expression compared with Veh+Veh, noggin alone” value ([4]; noggin 3 μg/ml) was “inhibited both gene expressions significantly”, the “effect on aggrecan gene expression upregulated by simvastatin” value [4, 5] was “failed to block” and the “effect on type II collagen gene expression upregulated by simvastatin” value [4, 5] was “attenuated”. For the same molecule, the “effect on type II collagen gene expression upregulated by simvastatin” value ([4]; noggin 3 μg/ml, simvastatin 3 μM, day 14, listed as noggin) was “significantly attenuated” and the “block of BMP-2 activity” value (BMP-2) was “over 90%”.

From patent US20110166417A1, “METHOD AND DEVICE FOR REPAIR OF DEGENERATIVE CARTILAGE” (THE REGENTS OF UNIVERSITY OF MICHIGAN, priority 2008, published 2011)
